The values that follow come from patent publication US11298363B2, “Triazolobenzazepines as vasopressin V1a receptor antagonists” (RICHTER GEDEON NYRT., priority 2017, dated 2022).

Test [1] addresses T1, human vasopressin V1a receptor (Homo sapiens, UniProt P37288). The test is described as follows: Functional assay on human vasopressin V1a receptor expressing cell line (intracellular Ca2+ fluorescence). It is filed as cell-based. As to conditions: 1321N1 cells, (Arg8)-vasopressin at EC80; read-out: IC50 (nM) on hV1a cell line. As to the method:
Functional Assay to Test Compounds on Human Vasopressin V1a Receptor Expressing Cell Line
The ordinary secondary messenger pathway of the measured GPCR receptor was used, the endogenous Gq-associated system.
Using 30,000 cells/plate, compounds were measured on 96-well plates. The buffer composition of the measurements was the following (expressed in mM): 140 NaCl, 5 KCl, 2 CaCl2), 2 MgCl2, 10 glucose, 10 HEPES (4-(2-hydroxyethyl)-1-piperazine-ethanesulfonic acid), 2 probenecid, pH=7.4. FLIPR Calcium 5 kit (Molecular Devices) was used as fluorescent dye, the medium was not removed prior to filling with the dye and the cells were not washed out either before or after. The incubation was performed at room temperature, the final concentration of DMSO was 1%. The materials to be measured were administered in 15 to 20 minutes pretreatment, at least two parallels of each compound in each concentration was measured.
Fluorescence signal was used to determine the intracellular Ca^2+ level, the reader was FlexStation II96. […] The fluorescence signal was logged in every 1.4 seconds for 1 minute. The reference compounds used were the following: (Arg^8)-vasopressin as agonist at concentration of EC80, determined for each plate, and relcovaptan as antagonist at 1 μM. The % of inhibition at each concentration and the IC50 value of the compounds were determined where a concentration line was also measured.
The total AVP concentration-response curve was recorded on each plate. The effect of compounds measured was expressed by percentage of relative inhibition compared to control response. […] The average IC50 values were calculated from at least three independent measurements in all cases.

For test [2], the target named is T1, human vasopressin V1a receptor. The experiment in a line: Human vasopressin V1a receptor binding assay. The note with it: 1321N1 cell membranes, [3H]vasopressin; read-out: Ki (nM) on hV1a cell line. The method, then:
Human Vasopressin V1a Receptor Binding Assay
Cells were suspended in preparative buffer (50 mM Tris, 1 mM EDTA, 0.1 mM PMSF) and homogenized with glass homogenizing potter. To separate the raw membrane fraction two consecutive centrifugation procedures (40,000 g for 20 minutes at 4° C.) were executed, then the membrane was taken into the preparatory buffer during a final washing step, it was divided into aliquots which were stored at −80° C. until the time of measurement.
To determine the final affinity value, the results of at least two independent experiments were taken into account.
Non-specific binding values were determined in the presence of unlabeled 1.2×10^−6 M (Arg^8)-vasopressin. Samples were incubated in a total volume of 0.33 ml for 60 minutes at 27° C. Membrane-bound and free ligands were separated by filtration through a 0.5% polyethyleneimine-impregnated UniFilter® GF/B™. After drying the filter plates, 40 μl Microscint-20 (Packard) scintillation cocktail was added to the samples. Finally, radioactivity was measured using MicroBeta^2 Microplate Counter (Perkin Elmer).
During fitting, the asymptotes are not fixed. The K values (inhibition constant) are given with Cheng-Prusoff equation Ki=IC50/[1+(L/KD)] wherein [L] is the radioligand concentration used in the experiment and [KD] is the affinity of the radioactively labelled ligand for the given receptor. The KD is determined beforehand using the Scatchard curve.

T1 sequence (P37288 whole entry): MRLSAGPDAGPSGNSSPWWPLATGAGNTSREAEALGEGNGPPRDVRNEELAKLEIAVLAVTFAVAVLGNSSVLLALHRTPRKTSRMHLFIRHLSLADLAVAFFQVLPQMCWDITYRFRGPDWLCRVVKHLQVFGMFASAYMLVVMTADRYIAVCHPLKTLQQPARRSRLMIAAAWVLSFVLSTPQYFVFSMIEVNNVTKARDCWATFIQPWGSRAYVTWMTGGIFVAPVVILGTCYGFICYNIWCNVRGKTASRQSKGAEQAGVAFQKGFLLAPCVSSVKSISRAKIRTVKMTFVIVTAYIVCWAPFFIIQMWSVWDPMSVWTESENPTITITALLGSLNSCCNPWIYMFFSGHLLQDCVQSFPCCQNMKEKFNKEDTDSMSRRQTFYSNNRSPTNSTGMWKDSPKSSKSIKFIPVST

Consider `CC[C@]1(OC)CC[C@@H](c2nnc3n2-c2ccc(Cl)cc2CC2(C3)OCCO2)CC1` [Example 240, 8′-chloro-1′-(cis-4-ethyl-4-methoxycyclohexyl)-4′H,6′H-spiro[1,3-dioxolane-2,5′-[1,2,4]triazolo[4,3-a][1]benzazepine]], for which, in test [1], the IC50 worked out at 3.1 nM. In test [2], the Ki was 0.5 nM.
In the same order, the values of `COC1Cc2cc(Cl)ccc2-n2c(nnc2[C@@H]2CCN(Cc3ccccn3)C2)C1` (stereo partly drawn) [Example 248, 8-chloro-5-methoxy-1-[(3R)-1-(pyridin-2-ylmethyl)pyrrolidin-3-yl]-5,6-dihydro-4H-[1,2,4]triazolo[4,3-a][1]benzazepine] are 22 nM and 2.3 nM.
For `CCC[C@]1(OCC)CC[C@H](c2nnc3n2-c2ccc(Cl)cc2CC2(C3)OCCO2)CC1` [Example 238, 8′-chloro-1′-(trans-4-ethoxy-4-propylcyclohexyl)-4′H,6′-spiro[1,3-dioxolane-2,5′-[1,2,4]triazolo[4,3-a][1]benzazepine]], in that order: 8.2 nM and 0.7 nM.
`OC1Cc2cc(Br)ccc2-n2c(nnc2[C@H]2CC[C@H](Oc3ccccn3)CC2)C1` (stereo partly drawn) [Example 65, 8-bromo-1-[trans-4-(pyridin-2-yloxy)cyclohexyl]-5,6-dihydro-4H-[1,2,4]triazolo[4,3-a][1]benzazepin-5-ol]: the IC50 in test [1] worked out at 1 nM. For the same molecule, the Ki in test [2] worked out at 0.5 nM.
For `CC(C)(C)OC(=O)NC1Cc2cc(Cl)ccc2-n2c(nnc2[C@H]2CC[C@H](N3CCOCC3)CC2)C1` (stereo partly drawn) [Example 112, Tert-butyl {8-chloro-1-[trans-4-(morpholin-4-yl)cyclohexyl]-5,6-dihydro-4H-[1,2,4]triazolo[4,3-a][1]benzazepin-5-yl}carbamate], in that order: 213 nM and 45.4 nM.
Take `Clc1ccc2c(c1)CC1(Cc3nnc([C@H]4CCN(Cc5ccccn5)C4)n3-2)OCCO1` [Example 252, 8′-chloro-1′-[(3S)-1-(pyridin-2-ylmethyl)pyrrolidin-3-yl]-4′H,6′H-spiro[1,3-dioxolane-2,5′-[1,2,4]triazolo[4,3-a][1]benzazepine]]: the IC50 in test [1] was 8.2 nM. Moreover, the Ki in test [2] is 0.7 nM.
For `CC(=O)NC1Cc2cc(Cl)ccc2-n2c(nnc2C2CCN(c3ccccn3)CC2)C1` (centres unmarked) [Example 3, N-[8-chloro-[1-(pyridin-2-yl)piperidin-4-yl]-5,6-dihydro-4H-[1,2,4]triazolo[4,3-a][1]benzazepin-5-yl]acetamide], in that order: 16 nM and 2.1 nM.
For `CN(C)CCN[C@@H]1Cc2cc(Cl)ccc2-n2c(nnc2[C@H]2CC[C@H](Oc3ccccn3)CC2)C1` [Example 194, N′-{(5R)-8-chloro-1-[trans-4-(pyridin-2-yloxy)cyclohexyl]-5,6-dihydro-4H-[1,2,4]triazolo[4,3-a][1]benzazepin-5-yl}-N,N-dimethylethane-1,2-diamine], in that order: 22 nM and 1.1 nM.
For `CN(C)C(=O)NC1Cc2cc(Cl)ccc2-n2c(nnc2[C@H]2CC[C@H](Oc3ccccn3)CC2)C1` (stereo partly drawn) [Example 16, 3-{8-chloro-1-[trans-4-(pyridin-2-yloxy)cyclohexyl]-5,6-dihydro-4H-[1,2,4]triazolo[4,3-a][1]benzazepin-5-yl}-1,1-dimethylurea], in that order: 10 nM and 3 nM.
For the molecule `CCO[C@]1(CC)CC[C@@H](c2nnc3n2-c2ccc(Cl)cc2CC(NC(C)C)C3)CC1` (stereo partly drawn) [Example 244, 8-chloro-1-(trans-4-ethoxy-4-ethylcyclohexyl)-N-(propan-2-yl)-5,6-dihydro-4H-[1,2,4]triazolo[4,3-a][1]benzazepin-5-amine], the IC50 in test [1] was 263 nM. Moreover, the Ki in test [2] worked out at 25 nM.
`Clc1ccc2c(c1)CC(NC1CCC1)Cc1nnc([C@H]3CC[C@H](Oc4ccccn4)CC3)n1-2` (stereo partly drawn) [Example 27, 8-chloro-N-cyclobutyl-1-[trans-4-(pyridin-2-yloxy)cyclohexyl]-5,6-dihydro-4H-[1,2,4]triazolo[4,3-a][1]benzazepine-5-amine]: the IC50 in test [1] came out at 7 nM. Besides, the Ki in test [2] stood at 1.1 nM.
For `COC1Cc2ccccc2-n2c(nnc2[C@H]2CC[C@H](Oc3ccccn3)CC2)C1` (stereo partly drawn) [Example 109, 5-methoxy-1-[trans-4-(pyridin-2-yloxy)cyclohexyl]-5,6-dihydro-4H-[1,2,4]triazolo[4,3-a][1]benzazepine], in that order: 2.7 nM and 0.4 nM.
For `CO[C@@H]1Cc2cc(Cl)ccc2-n2c(nnc2[C@H]2CC[C@H](C(F)(F)F)CC2)C1` (single isomer, unassigned) [Example 132], in that order: 2.5 nM and 0.3 nM.
In the same order, the values of `CN1C[C@]2(CC[C@@H](c3nnc4n3-c3ccc(Cl)cc3CC3(C4)OCCO3)CC2)OC1=O` [Example 75, (trans)-8-(8′-chloro-4′H, 6′H-spiro[1,3-dioxolane-2,5′-[1,2,4]triazolo[4,3-a][1]benzazepin]-1′-yl)-3-methyl-1-oxa-3-azaspiro[4.5]decan-2-one] are 10.4 nM and 3.7 nM.
`CC(C)N1CC[C@]2(CC[C@@H](c3nnc4n3-c3ccc(Cl)cc3CC(O)C4)CC2)C1=O` (some centres unmarked) [Example 116, (5r,8r)-8-(8-chloro-5-hydroxy-5,6-dihydro-4H-[1,2,4]triazolo[4,3-a][1]benzazepin-1-yl)-2-(propan-2-yl)-2-azaspiro[4,5]decan-1-one]: the IC50 in test [1] came out at 2.1 nM. Also, the Ki in test [2] was determined as 0.7 nM.
In the same order, the values of `CN(C)C1Cc2cc(C(F)(F)F)ccc2-n2c(nnc2[C@H]2CC[C@H](Oc3ccccn3)CC2)C1` (stereo partly drawn) [Example 35, N,N-dimethyl-1-[trans-4-(pyridin-2-yloxy)cyclohexyl]-8-(trifluoromethyl)-5,6-dihydro-4H-[1,2,4]triazolo[4,3-a][1]benzazepine-5-amine] are 160 nM and 9.7 nM.
For `CCC(C)N[C@H]1Cc2cc(Cl)ccc2-n2c(nnc2[C@H]2CC[C@H](Oc3ccccn3)CC2)C1` (some centres unmarked) [Example 128], in that order: 14 nM and 2 nM.
In the same order, the values of `CC(C)(C)OC(=O)NC1Cc2cc(F)ccc2-n2c(nnc2[C@H]2CC[C@H](Oc3ccccn3)CC2)C1` (stereo partly drawn) [Example 143, Tert-butyl {8-fluoro-1-[trans-4-(pyridin-2-yloxy)cyclohexyl]-5,6-dihydro-4H-[1,2,4]triazolo[4,3-a][1]benzazepin-5-yl}carbamate] are 156 nM and 5 nM.
On to `COC1Cc2cc(F)ccc2-n2c(nnc2[C@H]2CC[C@H](Oc3ccccn3)CC2)C1` (stereo partly drawn) [Example 134, 8-fluoro-5-methoxy-1-[trans-4-(pyridin-2-yloxy)cyclohexyl]-5,6-dihydro-4H-[1,2,4]triazolo[4,3-a][1]benzazepine], for which, in test [1], the IC50 worked out at 1.5 nM. In test [2], the Ki turned out to be 0.2 nM.
For `Clc1ccc2c(c1)CC1(Cc3nnc(N4CCC(N5CCCCC5)CC4)n3-2)OCCO1` [Example 94, 1′-(1,4′-bipiperidin-1′-yl)-8′-chloro-4′H,6′H-spiro[1,3-dioxolane-2,5′-[1,2,4]triazolo[4,3-a][1]benzazepine]], in that order: 23 nM and 2 nM.
Consider `NC1Cc2cc(Cl)ccc2-n2c(nnc2C2CCN(c3ccccn3)CC2)C1` (centres unmarked) [Example 2, 8-chloro-1-[1-(pyridin-2-yl)piperidin-4-yl]-5,6-dihydro-4H-[1,2,4]triazolo[4,3-a][1]benzazepine-5-amine], for which, in test [1], the half-maximal inhibitory concentration (IC50) was 170 nM. Moreover, the inhibition constant Ki in test [2] was 7 nM.
In the same order, the values of `COc1ccc2c(c1)CC(NC(C)C)Cc1nnc([C@H]3CC[C@H](Oc4ccccn4)CC3)n1-2` (stereo partly drawn) [Example 32, 8-methoxy-N-(propan-2-yl)-1-[trans-4-(pyridin-2-yloxy)cyclohexyl]-5,6-dihydro-4H-[1,2,4]triazolo[4,3-a][1]benzazepine-5-amine] are 85 nM and 6 nM.

What is called IC50 is the concentration that gives 50% inhibition. The Ki is the dissociation constant of the complex between target and ligand, obtained from inhibition or displacement.
